Measured values as given in patent EP0581166A1, “Benzimidazoles, process for their preparation and their use as angiotensin-II antagonists” (Dr. Karl Thomae GmbH, priority 1992, dated 1994).

The molecules below were run against T1, Angiotensin II-Rezeptor (Rattus norvegicus, UniProt P25095) (assay: Angiotensin II receptor binding: displacement of [125I]-angiotensin II in rat lung homogenate). Conditions: rat lung (Rattenlunge) homogenate, 50 pM [125I]-Angiotensin II, 60 min at 37°C, IC50 from dose-response curve; read-out: IC₅₀.
T1 construct: Das Gewebe (Rattenlunge) wird in Tris-Puffer; from tissue; host or cells: rat lung homogenate (membrane pellet, 20,000 x g)
T1 sequence (P25095 1-359): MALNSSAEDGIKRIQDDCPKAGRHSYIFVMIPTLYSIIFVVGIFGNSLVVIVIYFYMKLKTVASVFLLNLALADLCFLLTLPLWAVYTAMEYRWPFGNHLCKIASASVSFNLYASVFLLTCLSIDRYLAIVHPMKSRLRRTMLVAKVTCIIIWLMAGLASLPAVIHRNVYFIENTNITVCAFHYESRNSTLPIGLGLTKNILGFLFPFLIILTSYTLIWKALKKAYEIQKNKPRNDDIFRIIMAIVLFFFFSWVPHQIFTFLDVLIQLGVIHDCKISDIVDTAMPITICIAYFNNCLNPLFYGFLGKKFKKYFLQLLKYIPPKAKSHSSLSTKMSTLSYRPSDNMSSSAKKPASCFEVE
Set-up: species or system Ratte
Procedure: Methodenbeschreibung Angiotensin II-Rezeptorbindung
Das Gewebe (Rattenlunge) wird in Tris-Puffer (50 mMol Tris, 150 mMol NaCl, 5 mMol EDTA, pH 7.40) homogenisiert und zweimal je 20 Min. bei 20.000 x g zentrifugiert. Das endgültige Pellet wird in Inkubations-Puffer (50 mMol Tris, 5 mMol MgCl₂, 0,2 % BSA, pH 7,40) 1:75, bezogen auf das Feuchtgewicht des Gewebes, resuspendiert. Je 0,1 ml Homogenat wird für 60 Min. bei 37°C mit 50 pM [125^I]-Angiotensin II (NEN, Dreieich, FRG) und steigenden Konzentrationen der Testsubstanz in einem Gesamtvolumen von 0,25 ml inkubiert. Die Inkubation wird durch rasche Filtration durch Glasfiber-Filtermatten beendet. Die Filter werden je 4 ml eiskaltem Puffer (25 mMol Tris, 2.5 mMol MgCl₂, 0,1 % BSA, pH 7,40) gewaschen. Die gebundene Radioaktivität wird in einem Gamma-Counter ermittelt. Aus der Dosis-Wirkungskurve wird der entsprechende IC₅₀-Wert ermittelt.

Row | IC50 [nM] | SMILES
1 | 1.7 | Cc1cc(-c2cn3ccccc3n2)cc2c1nc(C1CC1)n2Cc1ccc(-c2ccccc2C(=O)O)cc1 [Substanz C, 4'-[(2-Cyclopropyl-4-methyl-6-(imidazo[1,2-a]pyridin-2-yl)-benzimidazol-1-yl)-methyl]-biphenyl-2-carbonsäure]
2 | 0.9 | CCCc1nc2c(C)cc(N3CCCCS3(=O)=O)cc2n1Cc1ccc(-c2ccccc2C(=O)O)cc1 [Substanz B, 4'-[(2-n-Propyl-4-methyl-6-(butansultam-1-yl)-benzimidazol-1-yl)-methyl]-biphenyl-2-carbonsäure]
3 | 7.4 | CCc1nc2c(C)cc(-c3nc4cc(F)ccc4n3C)cc2n1Cc1ccc(-c2ccccc2C(=O)O)cc1 [Substanz A, 4'-[(2-Ethyl-4-methyl-6-(1-methyl-5-fluor-benzimidazol-2-yl)-benzimidazol-1-yl)-methyl]-biphenyl-2-carbonsäure]
4 | 1.3 | Cc1cc(-c2cn3c(n2)CCCC3)cc2c1nc(C1CC1)n2Cc1ccc(-c2ccccc2C(=O)O)cc1 [Substanz D, 4'-[(2-Cyclopropyl-4-methyl-6-(5,6,7,8-tetrahydro-imidazo[1,2-a]pyridin-2-yl)-benzimidazol-1-yl)-methyl]-biphenyl-2-carbonsäure]
5 | 3.3 | CCOc1nc2c(C)cc(-c3nc4ccccc4n3C)cc2n1Cc1ccc(-c2ccccc2-c2nnn[nH]2)cc1 [Substanz E, 4'-[(2-Ethoxy-4-methyl-6-(1-methyl-benzimidazol-2-yl)-benzimidazol-1-yl)-methyl]-2-(1H-tetrazol-5-yl)-biphenyl]
